Laboratory results published in patent US9079902B2, “Heteroaryl sodium channel inhibitors” (AMGEN INC., priority 2011, dated 2015).

Columns and labels:
Nav 1.7 = Nav 1.7 (Homo sapiens (Human), UniProt Q15858); experiment: Nav 1.7 in vitro assay (IonWorks Quattro population patch-clamp); assay type: cell-based; conditions: 293 cells stably transfected with Nav 1.7; 26th pulse to -20 mV, 5 Hz
Method: (§1) Nav 1.7 and Nav 1.5 In Vitro Assay
(§2) 293 cells stably transfected with either Nav 1.7 or with Nav 1.5 were recorded in population patch-clamp mode with the IonWorks® Quattro automated electrophysiology system in accordance with the manufacturer's specifications (Molecular Devices, LLC, Sunnyvale, Calif.). Sodium channel currents were measured in response to a train of depolarizations that induced successively greater inactivation.
(§3) Cells were held at −110 mV for three seconds (Nav 1.7) or half a second (Nav 1.5) from a holding voltage of −15 mV, then put through a series of 26 pulses of 150 msec duration to −20 mV at a frequency of 5 Hz. Cells were then left unclamped for a period of 3 to 8 minutes while a single concentration of test compound was added. Cells were then reclamped and put through the same voltage protocol. Current at the end of the 26th pulse to −20 mV was subtracted from the peak current evoked by the 26th pulse to −20 mV to correct for leak current. Percent block was calculated for each concentration in duplicate, and IC50 curves were fitted to percent block as a function of concentration.

Nav 1.5 = Nav 1.5 (Homo sapiens (Human), UniProt Q14524); experiment: Nav 1.5 in vitro assay (IonWorks Quattro population patch-clamp); assay type: cell-based; conditions: 293 cells stably transfected with Nav 1.5; 26th pulse to -20 mV, 5 Hz
Sequence of Nav 1.5 (Q14524 whole entry): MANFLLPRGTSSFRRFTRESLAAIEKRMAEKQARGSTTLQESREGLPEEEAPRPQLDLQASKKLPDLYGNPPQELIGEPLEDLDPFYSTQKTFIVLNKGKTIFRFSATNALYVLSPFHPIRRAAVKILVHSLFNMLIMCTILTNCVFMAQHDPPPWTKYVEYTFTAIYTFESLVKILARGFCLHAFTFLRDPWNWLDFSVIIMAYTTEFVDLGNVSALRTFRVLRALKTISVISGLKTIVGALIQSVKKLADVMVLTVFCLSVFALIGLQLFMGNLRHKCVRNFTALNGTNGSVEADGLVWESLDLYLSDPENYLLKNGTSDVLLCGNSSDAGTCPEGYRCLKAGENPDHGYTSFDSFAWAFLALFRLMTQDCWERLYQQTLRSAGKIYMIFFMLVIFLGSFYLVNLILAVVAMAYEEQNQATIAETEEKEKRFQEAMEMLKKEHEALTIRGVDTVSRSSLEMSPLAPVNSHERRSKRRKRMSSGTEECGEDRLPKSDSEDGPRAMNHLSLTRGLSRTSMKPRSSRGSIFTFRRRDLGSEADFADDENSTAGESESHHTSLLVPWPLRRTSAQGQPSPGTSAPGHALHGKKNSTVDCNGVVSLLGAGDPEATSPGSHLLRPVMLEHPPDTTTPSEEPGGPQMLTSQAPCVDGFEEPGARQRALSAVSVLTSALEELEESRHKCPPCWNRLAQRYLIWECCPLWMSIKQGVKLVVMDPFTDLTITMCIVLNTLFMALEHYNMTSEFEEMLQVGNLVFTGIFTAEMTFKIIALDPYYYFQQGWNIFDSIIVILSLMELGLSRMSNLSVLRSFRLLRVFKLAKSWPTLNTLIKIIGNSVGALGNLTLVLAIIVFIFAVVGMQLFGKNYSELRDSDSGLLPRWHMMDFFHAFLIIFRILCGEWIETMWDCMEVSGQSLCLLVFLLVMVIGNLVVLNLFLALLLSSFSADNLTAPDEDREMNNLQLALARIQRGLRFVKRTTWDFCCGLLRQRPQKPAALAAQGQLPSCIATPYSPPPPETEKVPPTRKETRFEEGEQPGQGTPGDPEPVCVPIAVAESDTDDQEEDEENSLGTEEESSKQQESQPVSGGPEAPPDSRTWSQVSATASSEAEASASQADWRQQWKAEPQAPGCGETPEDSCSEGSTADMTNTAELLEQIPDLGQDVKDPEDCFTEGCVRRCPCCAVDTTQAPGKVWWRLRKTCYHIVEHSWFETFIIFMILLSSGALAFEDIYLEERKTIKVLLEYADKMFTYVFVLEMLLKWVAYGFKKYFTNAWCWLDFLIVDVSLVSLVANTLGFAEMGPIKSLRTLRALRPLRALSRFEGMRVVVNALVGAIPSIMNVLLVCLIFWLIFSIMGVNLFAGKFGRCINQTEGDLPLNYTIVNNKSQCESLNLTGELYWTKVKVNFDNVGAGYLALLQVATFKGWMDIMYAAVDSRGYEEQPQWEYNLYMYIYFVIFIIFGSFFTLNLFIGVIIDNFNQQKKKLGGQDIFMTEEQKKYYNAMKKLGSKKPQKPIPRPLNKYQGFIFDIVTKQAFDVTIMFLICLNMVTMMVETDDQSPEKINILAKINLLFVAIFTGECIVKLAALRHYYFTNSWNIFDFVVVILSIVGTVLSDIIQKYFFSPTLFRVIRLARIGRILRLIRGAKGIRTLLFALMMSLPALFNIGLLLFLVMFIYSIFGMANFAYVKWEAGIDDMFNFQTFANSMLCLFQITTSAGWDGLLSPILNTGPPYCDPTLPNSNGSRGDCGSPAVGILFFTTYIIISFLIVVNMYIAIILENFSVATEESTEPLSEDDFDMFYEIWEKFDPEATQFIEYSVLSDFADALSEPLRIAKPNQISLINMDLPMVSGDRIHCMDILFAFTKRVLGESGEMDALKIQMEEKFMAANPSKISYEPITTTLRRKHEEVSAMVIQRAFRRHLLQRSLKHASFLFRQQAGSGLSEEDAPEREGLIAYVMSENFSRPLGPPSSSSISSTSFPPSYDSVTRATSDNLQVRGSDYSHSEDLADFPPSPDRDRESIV
Method: as §1, §2, §3

Sequence of Nav 1.7 (Q15858 whole entry): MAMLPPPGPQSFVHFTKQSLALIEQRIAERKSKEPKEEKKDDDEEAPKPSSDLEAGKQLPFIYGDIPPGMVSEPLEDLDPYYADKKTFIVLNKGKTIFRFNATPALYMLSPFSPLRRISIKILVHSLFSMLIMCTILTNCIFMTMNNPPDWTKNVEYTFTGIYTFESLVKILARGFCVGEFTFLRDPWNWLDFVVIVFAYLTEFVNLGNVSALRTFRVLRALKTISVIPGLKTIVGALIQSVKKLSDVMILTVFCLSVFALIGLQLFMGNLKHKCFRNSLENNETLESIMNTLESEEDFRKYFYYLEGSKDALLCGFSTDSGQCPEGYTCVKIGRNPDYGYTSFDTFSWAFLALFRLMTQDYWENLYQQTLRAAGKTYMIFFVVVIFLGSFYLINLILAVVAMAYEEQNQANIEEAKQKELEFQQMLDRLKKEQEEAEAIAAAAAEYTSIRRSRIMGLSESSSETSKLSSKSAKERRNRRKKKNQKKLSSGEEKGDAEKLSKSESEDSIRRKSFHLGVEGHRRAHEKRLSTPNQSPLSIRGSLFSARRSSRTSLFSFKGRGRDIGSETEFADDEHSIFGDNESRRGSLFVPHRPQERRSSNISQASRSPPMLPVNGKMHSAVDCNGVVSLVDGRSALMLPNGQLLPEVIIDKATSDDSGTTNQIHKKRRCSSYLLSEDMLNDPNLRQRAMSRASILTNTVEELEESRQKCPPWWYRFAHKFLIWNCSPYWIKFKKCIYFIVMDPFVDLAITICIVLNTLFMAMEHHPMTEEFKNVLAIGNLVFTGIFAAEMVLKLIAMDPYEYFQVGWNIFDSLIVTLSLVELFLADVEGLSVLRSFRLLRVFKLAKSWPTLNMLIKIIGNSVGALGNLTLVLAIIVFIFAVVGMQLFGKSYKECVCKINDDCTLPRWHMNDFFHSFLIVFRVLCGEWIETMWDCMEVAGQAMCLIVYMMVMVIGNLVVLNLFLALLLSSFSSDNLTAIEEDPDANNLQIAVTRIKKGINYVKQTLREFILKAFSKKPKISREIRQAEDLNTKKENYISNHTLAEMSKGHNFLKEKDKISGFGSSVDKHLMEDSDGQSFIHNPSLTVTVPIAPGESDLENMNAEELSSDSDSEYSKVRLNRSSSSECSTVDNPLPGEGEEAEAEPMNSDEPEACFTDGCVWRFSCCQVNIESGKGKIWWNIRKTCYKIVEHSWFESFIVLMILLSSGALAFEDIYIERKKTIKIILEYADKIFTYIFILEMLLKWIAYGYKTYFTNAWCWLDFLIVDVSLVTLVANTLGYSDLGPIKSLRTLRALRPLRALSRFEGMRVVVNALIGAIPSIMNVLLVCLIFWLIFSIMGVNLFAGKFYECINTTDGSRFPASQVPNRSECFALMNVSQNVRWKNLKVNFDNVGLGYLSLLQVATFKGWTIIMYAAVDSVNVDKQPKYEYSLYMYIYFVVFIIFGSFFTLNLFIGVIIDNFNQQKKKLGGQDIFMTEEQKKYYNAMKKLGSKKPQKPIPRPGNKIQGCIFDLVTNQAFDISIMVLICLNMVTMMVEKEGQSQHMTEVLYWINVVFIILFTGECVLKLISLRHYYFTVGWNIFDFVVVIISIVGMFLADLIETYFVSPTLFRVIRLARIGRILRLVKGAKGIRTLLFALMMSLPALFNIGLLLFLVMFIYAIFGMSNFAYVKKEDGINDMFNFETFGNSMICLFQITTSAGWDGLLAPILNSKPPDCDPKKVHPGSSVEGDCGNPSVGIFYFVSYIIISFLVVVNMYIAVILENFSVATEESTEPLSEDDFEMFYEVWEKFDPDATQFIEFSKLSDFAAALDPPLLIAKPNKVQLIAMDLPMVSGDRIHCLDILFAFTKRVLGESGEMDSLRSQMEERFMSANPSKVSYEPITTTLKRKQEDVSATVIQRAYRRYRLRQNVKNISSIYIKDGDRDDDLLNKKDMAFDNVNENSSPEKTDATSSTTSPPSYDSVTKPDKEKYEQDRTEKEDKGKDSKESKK

With `Cn1nccc1-c1cc(Cl)ccc1-c1c[nH]c2cc(S(=O)(=O)Nc3ncns3)ccc12` [Example 1, 3-(4-Chloro-2-(1-Methyl-1H-Pyrazol-5-yl)Phenyl)-N-(1,2,4-Thiadiazol-5-yl)-1H-Indole-6-Sulfonamide] the IC50 (Nav 1.7) was 0.445 µM and the IC50 (Nav 1.5) was > 10 µM.

With `Cn1nccc1-c1cc(Cl)ccc1-c1cn(C)c2cc(S(=O)(=O)Nc3ncns3)ccc12` [Example 2, 3-(4-Chloro-2-(1-Methyl-1H-Pyrazol-5-yl)Phenyl)-1-Methyl-N-(1,2,4-Thiadiazol-5-yl)-1H-Indole-6-Sulfonamide] the IC50 (Nav 1.7) was 0.253 µM and the IC50 (Nav 1.5) was > 10 µM.

For `CC(C)n1cc(-c2ccc(C(F)(F)F)cc2-c2ccnn2C)c2ccc(S(=O)(=O)Nc3ncns3)cc21` [Example 3, 1-Isopropyl-3-(2-(1-Methyl-1H-Pyrazol-5-yl)-4-(Trifluoromethyl)Phenyl)-N-(1,2,4-Thiadiazol-5-yl)-1H-Indole-6-Sulfonamide], the IC50 (Nav 1.7) was 1.93 µM and the IC50 (Nav 1.5) was > 10 µM.

For `CC(=O)n1cc(-c2ccc(C(F)(F)F)cc2-c2ccnn2C)c2ccc(S(=O)(=O)Nc3ncns3)cc21` [Example 4, 1-Acetyl-3-(2-(1-Methyl-1H-Pyrazol-5-yl)-4-(Trifluoromethyl)Phenyl)-N-(1,2,4-Thiadiazol-5-yl)-1H-Indole-6-Sulfonamide], the IC50 (Nav 1.7) was 0.0505 µM and the IC50 (Nav 1.5) was > 10 µM.

With `Cn1nccc1-c1cc(C(F)(F)F)ccc1-c1c[nH]c2cc(S(=O)(=O)Nc3ncns3)ccc12` [Example 5, 3-(2-(1-Methyl-1H-Pyrazol-5-yl)-4-(Trifluoromethyl)Phenyl)-N-(1,2,4-Thiadiazol-5-yl)-1H-Indole-6-Sulfonamide] the IC50 (Nav 1.7) was 0.724 µM and the IC50 (Nav 1.5) was > 10 µM.

With `COC(=O)n1cc(-c2ccc(C(F)(F)F)cc2-c2ccnn2C)c2ccc(S(=O)(=O)Nc3ncns3)cc21` [Example 6, Methyl 6-(N-(1,2,4-Thiadiazol-5-yl)Sulfamoyl)-3-(2-(1-Methyl-1H-Pyrazol-5-yl)-4-(Trifluoromethyl)Phenyl)-1H-Indole-1-Carboxylate] the IC50 (Nav 1.7) was 0.356 µM and the IC50 (Nav 1.5) was > 10 µM.

In the case of `Cn1nccc1-c1cc(C(F)(F)F)ccc1-c1cn(S(C)(=O)=O)c2cc(S(=O)(=O)Nc3ncns3)ccc12` [Example 7, 3-(2-(1-Methyl-1H-Pyrazol-5-yl)-4-(Trifluoromethyl)Phenyl)-1-(Methylsulfonyl)-N-(1,2,4-Thiadiazol-5-yl)-1H-Indole-6-Sulfonamide], the IC50 (Nav 1.7) is reported as 0.532 µM and the IC50 (Nav 1.5) is reported as > 10 µM.

In the case of `Cn1nccc1-c1cc(C(F)(F)F)ccc1-c1cn(C)c2cc(S(=O)(=O)Nc3ncns3)ccc12` [Example 8, 1-Methyl-3-(2-(1-Methyl-1H-Pyrazol-5-yl)-4-(Trifluoromethyl)Phenyl)-N-(1,2,4-Thiadiazol-5-yl)-1H-Indole-6-Sulfonamide], the IC50 (Nav 1.7) is reported as 0.147 µM and the IC50 (Nav 1.5) is reported as > 10 µM.

With `Cn1cc(-c2cccnc2)c2ccc(S(=O)(=O)Nc3ncns3)cc21` [Example 9, 1-Methyl-3-(Pyridin-3-yl)-N-(1,2,4-Thiadiazol-5-yl)-1H-Indole-6-Sulfonamide] the IC50 (Nav 1.7) was 1.7 µM and the IC50 (Nav 1.5) was > 10 µM.

For `Cn1cc(-c2cc(F)ccc2F)c2ccc(S(=O)(=O)Nc3ncns3)cc21` [Example 10, 3-(2,5-Difluorophenyl)-1-Methyl-N-(1,2,4-Thiadiazol-5-yl)-1H-Indole-6-Sulfonamide], the IC50 (Nav 1.7) was 2.13 µM and the IC50 (Nav 1.5) was > 10 µM.

`Cn1cc(-c2ccc(C(F)(F)F)c(Cl)c2)c2ccc(S(=O)(=O)Nc3ncns3)cc21` [Example 24, 3-(3-Chloro-4-(Trifluoromethyl)Phenyl)-1-Methyl-N-(1,2,4-Thiadiazol-5-yl)-1H-Indole-6-Sulfonamide] was tested, and the IC50 (Nav 1.5) was > 10 µM.

In the case of `COc1cc(F)ccc1-c1cn(C)c2cc(S(=O)(=O)Nc3ncns3)ccc12` [Example 28, 3-(4-FLUORO-2-METHOXYPHENYL)-1-METHYL-N-(1,2,4-Thiadiazol-5-yl)-1H-Indole-6-Sulfonamide], the IC50 (Nav 1.5) is reported as > 10 µM.

`COc1cc(OC)cc(-c2cn(C)c3cc(S(=O)(=O)Nc4ncns4)ccc23)c1` [Example 29, 3-(3,5-Dimethoxyphenyl)-1-Methyl-N-(1,2,4-Thiadiazol-5-yl)-1H-Indole-6-Sulfonamide] was tested, and the IC50 (Nav 1.5) was > 10 µM.

`Cn1cc(-c2ccc(F)c(C#N)c2)c2ccc(S(=O)(=O)Nc3ncns3)cc21` [Example 30, 3-(3-Cyano-4-Fluorophenyl)-1-Methyl-N-(1,2,4-Thiadiazol-5-yl)-1H-Indole-6-Sulfonamide] showed an IC50 (Nav 1.5) of 7.63 µM.

With `Cn1cc(-c2ccc(C#N)c(F)c2)c2ccc(S(=O)(=O)Nc3ncns3)cc21` [Example 31, 3-(4-Cyano-3-Fluorophenyl)-1-Methyl-N-(1,2,4-Thiadiazol-5-yl)-1H-Indole-6-Sulfonamide] the IC50 (Nav 1.5) was > 10 µM.

`Cn1cc(-c2ccc(OC(F)(F)F)cc2)c2ccc(S(=O)(=O)Nc3ncns3)cc21` [Example 32, 1-Methyl-N-(1,2,4-Thiadiazol-5-yl)-3-(4-(Trifluoromethoxy)Phenyl)-1H-Indole-6-Sulfonamide] was tested, and the IC50 (Nav 1.5) was > 10 µM.

With `Cn1cc(-c2cccc(OC(F)(F)F)c2)c2ccc(S(=O)(=O)Nc3ncns3)cc21` [Example 33, 1-Methyl-N-(1,2,4-Thiadiazol-5-yl)-3-(3-(Trifluoromethoxy)Phenyl)-1H-Indole-6-Sulfonamide] the IC50 (Nav 1.5) was > 10 µM.

In the case of `Cn1cc(-c2cccc(C#N)c2)c2ccc(S(=O)(=O)Nc3ncns3)cc21` [Example 34, 3-(3-Cyanophenyl)-1-Methyl-N-(1,2,4-Thiadiazol-5-yl)-1H-Indole-6-Sulfonamide], the IC50 (Nav 1.5) is reported as > 10 µM.

With `Cn1cc(-c2ccccc2)c2ccc(S(=O)(=O)Nc3ncns3)cc21` [Example 35, 1-Methyl-3-Phenyl-N-(1,2,4-Thiadiazol-5-yl)-1H-Indole-6-Sulfonamide] the IC50 (Nav 1.5) was > 10 µM.

`COc1ccc(-c2cn(C)c3cc(S(=O)(=O)Nc4ncns4)ccc23)c(OC)c1` [Example 36, 3-(2,4-Dimethoxyphenyl)-1-Methyl-N-(1,2,4-Thiadiazol-5-yl)-1H-Indole-6-Sulfonamide] was tested, and the IC50 (Nav 1.5) was > 10 µM.

In the case of `Cn1cc(-c2cccc3ccccc23)c2ccc(S(=O)(=O)Nc3ncns3)cc21` [Example 37, 1-Methyl-3-(Naphthalen-1-yl)-N-(1,2,4-Thiadiazol-5-yl)-1H-Indole-6-Sulfonamide], the IC50 (Nav 1.5) is reported as > 10 µM.

With `Cn1cc(-c2cccc3ncccc23)c2ccc(S(=O)(=O)Nc3ncns3)cc21` [Example 38, 1-Methyl-3-(Quinolin-5-yl)-N-(1,2,4-Thiadiazol-5-yl)-1H-Indole-6-Sulfonamide] the IC50 (Nav 1.5) was > 10 µM.

In the case of `Cn1cc(-c2cccc(S(C)(=O)=O)c2)c2ccc(S(=O)(=O)Nc3ncns3)cc21` [Example 39, 1-Methyl-3-(3-(Methylsulfonyl)Phenyl)-N-(1,2,4-Thiadiazol-5-yl)-1H-Indole-6-Sulfonamide], the IC50 (Nav 1.5) is reported as > 10 µM.

For `COc1ccc(-c2cn(C)c3cc(S(=O)(=O)Nc4ncns4)ccc23)c2ccccc12` [Example 40, 3-(4-Methoxynaphthalen-1-yl)-1-Methyl-N-(1,2,4-Thiadiazol-5-yl)-1H-Indole-6-Sulfonamide], the IC50 (Nav 1.5) was > 10 µM.

`COc1ccc(-c2cn(C)c3cc(S(=O)(=O)Nc4ncns4)ccc23)c(Cl)c1` [Example 41, 3-(2-Chloro-4-Methoxyphenyl)-1-Methyl-N-(1,2,4-Thiadiazol-5-yl)-1H-Indole-6-Sulfonamide] was tested, and the IC50 (Nav 1.5) was > 10 µM.

In the case of `Cc1noc(C)c1-c1cn(C)c2cc(S(=O)(=O)Nc3ncns3)ccc12` [Example 42, 3-(3,5-Dimethylisoxazol-4-yl)-1-Methyl-N-(1,2,4-Thiadiazol-5-yl)-1H-Indole-6-Sulfonamide], the IC50 (Nav 1.5) is reported as > 10 µM.

In the case of `Cn1cc(-c2ccc(Br)cc2C(F)(F)F)c2ccc(S(=O)(=O)Nc3ncns3)cc21` [Example 43, 3-(4-Bromo-2-(Trifluoromethyl)Phenyl)-1-Methyl-N-(1,2,4-Thiadiazol-5-yl)-1H-Indole-6-Sulfonamide], the IC50 (Nav 1.5) is reported as > 10 µM.

With `Cn1cc(-c2ccccc2C(F)(F)F)c2ccc(S(=O)(=O)Nc3ncns3)cc21` [Example 44, 1-Methyl-N-(1,2,4-Thiadiazol-5-yl)-3-(2-(Trifluoromethyl)Phenyl)-1H-Indole-6-Sulfonamide] the IC50 (Nav 1.5) was > 10 µM.

In the case of `Cc1cnc(N)c(-c2cn(C)c3cc(S(=O)(=O)Nc4ncns4)ccc23)c1` [Example 45, 3-(2-Amino-5-Methylpyridin-3-yl)-1-Methyl-N-(1,2,4-Thiadiazol-5-yl)-1H-Indole-6-Sulfonamide], the IC50 (Nav 1.5) is reported as > 10 µM.

For `Cc1cc(C#N)ccc1-c1cn(C)c2cc(S(=O)(=O)Nc3ncns3)ccc12` [Example 46, 3-(4-Cyano-2-Methylphenyl)-1-Methyl-N-(1,2,4-Thiadiazol-5-yl)-1H-Indole-6-Sulfonamide], the IC50 (Nav 1.5) was > 10 µM.

In the case of `CN(C)c1cccc(-c2cn(C)c3cc(S(=O)(=O)Nc4ncns4)ccc23)c1` [Example 47, 3-(3-(Dimethylamino)Phenyl)-1-Methyl-N-(1,2,4-Thiadiazol-5-yl)-1H-Indole-6-Sulfonamide], the IC50 (Nav 1.5) is reported as > 10 µM.

`Cn1cc(-c2cccc(C(F)(F)F)c2)c2ccc(S(=O)(=O)Nc3ncns3)cc21` [Example 48, 1-Methyl-N-(1,2,4-Thiadiazol-5-yl)-3-(3-(Trifluoromethyl)Phenyl)-1H-Indole-6-Sulfonamide] was tested, and the IC50 (Nav 1.5) was > 10 µM.

With `COc1ccc(-c2cn(C)c3cc(S(=O)(=O)Nc4ncns4)ccc23)cc1C(F)(F)F` [Example 49, 3-(4-Methoxy-3-(Trifluoromethyl)Phenyl)-1-Methyl-N-(1,2,4-Thiadiazol-5-Yl)-1H-Indole-6-Sulfonamide] the IC50 (Nav 1.5) was > 10 µM.

In the case of `Cn1nccc1-c1cn(C)c2cc(S(=O)(=O)Nc3ncns3)ccc12` [Example 52, 1-Methyl-3-(1-Methyl-1H-Pyrazol-5-Yl)-N-(1,2,4-Thiadiazol-5-Yl)-1H-Indole-6-Sulfonamide], the IC50 (Nav 1.5) is reported as > 10 µM.
